This is an account of results in ChEMBL document CHEMBL3044903, “Synthesis and Herbicidal Activity of Novel 3-Alkoxycarbonyl-3-aryl-2,3-dihydro-2-oxo-1H-pyrrole Derivatives” (J Pestic Sci, 2004).

In data set [1] the test system is Oryza sativa. As to the kind of experiment: Phytotoxicity against two-leaf stage Oryza sativa cv. Nipponbare (rice) planted 2 cm depth at 2.5 g a.i/a measured after 3 weeks. The class given is organism-based. The note with it: in vivo, 504 h.
In data set [2] the test system is Oryza sativa. The data set is described as follows: Phytotoxicity against two-leaf stage Oryza sativa cv. Nipponbare (rice) planted 2 cm depth at 1 g a.i/a measured after 3 weeks. The class given is organism-based. The note with it: in vivo, other, 504 h.
Data set [3] deals with Echinochloa oryzicola. As to the kind of experiment: Post-emergence herbicide activity against Echinochloa oryzicola under greenhouse condition at 1 g a.i/a treated at one-leaf stage measured after 3 weeks. The class given is functional.
The subject of data set [4] is Oryza sativa. As to the kind of experiment: Phytotoxicity against two-leaf stage Oryza sativa cv. Nipponbare (rice) planted zero cm depth at 2.5 g a.i/a measured after 3 weeks. The class given is organism-based. The note with it: in vivo, other, 504 h.
Data set [5] relates to Echinochloa oryzicola. The data set is described as follows: Herbicidal activity against Echinochloa oryzicola at 5.0 g a.i/a treated at 1.5 leaf stage measured after 3 weeks. The class given is functional.
Data set [6] relates to Oryza sativa. The data set is described as follows: Phytotoxicity against two-leaf stage Oryza sativa cv. Nipponbare (rice) planted zero cm depth at 5.0 g a.i/a measured after 3 weeks. The format is organism-based. The note with it: in vivo, 504 h.
Data set [7] relates to Oryza sativa. As to the kind of experiment: Phytotoxicity against two-leaf stage Oryza sativa cv. Nipponbare (rice) planted 2 cm depth assessed as crop injury at 4 g a.i/a followed by leaching of irrigation water for 3 days measured after 3 weeks post-treatment. The class given is organism-based. The note with it: in vivo, other, 504 h.
Data set [8] relates to Echinochloa oryzicola. As to the kind of experiment: Pre-emergence herbicide activity against Echinochloa oryzicola under greenhouse condition at 1 g a.i/a measured after 3 weeks. The class given is functional.
Data set [9] deals with Schoenoplectiella juncoides. The data set is described as follows: Post-emergence herbicide activity against Schoenoplectiella juncoides under greenhouse condition at 1 g a.i/a treated at one-leaf stage measured after 3 weeks. The class given is functional.
Data set [10] deals with Echinochloa oryzicola. As to the kind of experiment: Herbicidal activity against Echinochloa oryzicola at 1 g a.i/a treated at 2.5 leaf stage measured after 3 weeks. The class given is functional.
Data set [11] deals with Oryza sativa. The data set is described as follows: Phytotoxicity against two-leaf stage Oryza sativa cv. Nipponbare (rice) planted zero cm depth at 1 g a.i/a measured after 3 weeks. The format is organism-based. The note with it: in vivo, other, 504 h.
For data set [12], the system named is Oryza sativa. As to the kind of experiment: Phytotoxicity against two-leaf stage Oryza sativa cv. Nipponbare (rice) planted 2 cm depth at 5.0 g a.i/a measured after 3 weeks. The class given is organism-based. The note with it: in vivo, 504 h.
The subject of data set [13] is Echinochloa oryzicola. As to the kind of experiment: Herbicidal activity against Echinochloa oryzicola at 2.5 g a.i/a treated at 2.5 leaf stage measured after 3 weeks. The class given is functional.
Data set [14] deals with Echinochloa oryzicola. The data set is described as follows: Herbicidal activity against Echinochloa oryzicola at 5.0 g a.i/a treated at 2.5 leaf stage measured after 3 weeks. The class given is functional.
The subject of data set [15] is Echinochloa oryzicola. The data set is described as follows: Herbicidal activity against Echinochloa oryzicola at 1 g a.i/a treated at 1.5 leaf stage measured after 3 weeks. The format is functional.
Data set [16] relates to Echinochloa oryzicola. As to the kind of experiment: Pre-emergence herbicide activity against Echinochloa oryzicola under greenhouse condition at 10 g a.i/a measured after 3 weeks. The format is functional.
The test system of data set [17] is Schoenoplectiella juncoides. The data set is described as follows: Post-emergence herbicide activity against Schoenoplectiella juncoides under greenhouse condition at 10 g a.i/a treated at one-leaf stage measured after 3 weeks. The class given is functional.
The subject of data set [18] is Schoenoplectiella juncoides. The data set is described as follows: Pre-emergence herbicide activity against Schoenoplectiella juncoides under greenhouse condition at 10 g a.i/a measured after 3 weeks. The format is functional.
The test system of data set [19] is Schoenoplectiella juncoides. As to the kind of experiment: Pre-emergence herbicide activity against Schoenoplectiella juncoides under greenhouse condition at 1 g a.i/a measured after 3 weeks. The class given is functional.
The test system of data set [20] is Oryza sativa. As to the kind of experiment: Phytotoxicity against two-leaf stage Oryza sativa cv. Nipponbare (rice) planted 2 cm depth assessed as crop injury at 2 g a.i/a followed by leaching of irrigation water for 3 days measured after 3 weeks post-treatment. The format is organism-based. The note with it: in vivo, other, 504 h.
In data set [21] the test system is Echinochloa oryzicola. The data set is described as follows: Herbicidal activity against Echinochloa oryzicola at 2.5 g a.i/a treated at 1.5 leaf stage measured after 3 weeks. The class given is functional.
Data set [22] deals with Echinochloa oryzicola. The data set is described as follows: Post-emergence herbicide activity against Echinochloa oryzicola under greenhouse condition at 10 g a.i/a treated at one-leaf stage measured after 3 weeks. The format is functional.
A short description of data set [23]: Drug degradation in MeOH-water/KOH at 70 degC assessed as formation of 1-[1-(3,5-dichlorophenyl)-1-methylethyl]-4-methyl-3- phenyl-3-pyrrolin-2-one. The class given is physicochemical. The note with it: buffer.
Data set [24] relates to Oryza sativa. As to the kind of experiment: Phytotoxicity against two-leaf stage Oryza sativa cv. Nipponbare (rice) planted 2 cm depth assessed as crop injury at 6 g a.i/a followed by leaching of irrigation water for 3 days measured after 3 weeks post-treatment. The format is organism-based. The note with it: in vivo, other, 504 h.
In data set [25] the test system is Oryza sativa. The data set is described as follows: Phytotoxicity against two-leaf stage Oryza sativa cv. Nipponbare (rice) planted 2 cm depth assessed as crop injury at 3 g a.i/a followed by leaching of irrigation water for 3 days measured after 3 weeks post-treatment. The class given is organism-based. The note with it: in vivo, other, 504 h.

On to `COC(=O)C1(c2ccccc2F)C(=O)N(C(C)(C)c2cc(Cl)cc(Cl)c2)C=C1C` (stereo not given), for which the Activity in [1] is recorded as 0%; in data set [2], 0%; in data set [3], 100%; in data set [4], 5%; in data set [5], 100%; in data set [6] it was 30%. The Activity worked out at 20% in data set [7]; 100% in data set [8]; 0.1% in data set [9]; 80% in data set [10]; 0% in data set [11]; 0% in data set [12]. Further, the Activity in [13] is on record as 90%; in [14] it was 100%; in data set [15] it was 99%; in data set [16] it was 100%; in data set [17] it was 87.6%; in data set [18], 100%. Besides, the Activity in data set [19] is given as 0.1%; in data set [20], 0%; in [21] it was 99%; in [22], 100%.

With `COC(=O)C1(c2ccccc2)C(=O)N(C(C)(C)c2cc(Cl)nc(Cl)c2)C=C1C` (stereo not given), the Activity turned out to be 0% in [1]; 0% in [2]; 50.1% in data set [3]; 70% in [4]; 99% in data set [5]; 80% in [6]. Further, the Activity in data set [8] is on record as 100%; in [9], 87.6%; in data set [10], 50%; in data set [11] it was 30%; in data set [12], 0%; in data set [13], 90%. For the same compound, the Activity in data set [14] was found to be 98%; in [15] it was 75%; in data set [16], 100%; in data set [17], 87.6%; in data set [18], 100%; in [19], 100%. Moreover, the Activity in data set [21] was 99%; in [22] it was 100%.

In the case of `COC(=O)C1(c2ccccc2)C(=O)N(C(C)(C)c2cc(Cl)cc(Cl)c2)C=C1CO` (stereo not given), the Activity is listed as 0% in data set [1]; 0% in [2]; 87.6% in data set [3]; 60% in data set [4]; 99% in data set [5]; 65% in [6]. Moreover, the Activity is 100% in data set [8]; 87.6% in data set [9]; 30% in data set [10]; 0% in data set [11]; 0% in [12]; 75% in data set [13]. Also, the Activity in data set [14] stood at 99%; in data set [15] it was 97%; in [16], 100%; in data set [17] it was 87.6%; in [18], 100%; in data set [19], 87.6%. Besides, the Activity in [21] stood at 99%; in data set [22] it was 100%.

For `COC(=O)C1(c2ccccc2)C(=O)N(C(C)(C)c2cc(Cl)cc(Cl)c2)C=C1C` (stereo not given), the Stability result in data set [23] is “Unstable”. Besides, the Activity in [1] was found to be 0%; in data set [2], 0%; in data set [24] it was 7%; in data set [3] it was 87.6%; in data set [4] it was 10%; in [5], 100%. For the same compound, the Activity in data set [6] turned out to be 80%; in data set [8] it was 100%; in data set [9], 0.1%; in data set [10] it was 60%; in data set [11] it was 0%; in [12], 0%. Moreover, the Activity came to 95% in data set [13]; 98% in data set [14]; 98% in data set [15]; 100% in data set [16]; 0% in [25]; 87.6% in data set [17]. Also, the Activity is 100% in data set [18], 100% in data set [19], 98% in [21] and 100% in data set [22].
